Experimental data published in a melting point compilation (Tetko et al.; mined from patent text by program, amines drawn as free bases though some values may be those of a salt).

| Compound | melting point [°C] |
| --- | --- |
| N#Cc1ccc(C(=O)n2ccnc2)cc1 | 152 to 154 |
| COc1ccc(-c2ccc(C(N)=O)cc2)cc1-c1ccc2nonc2c1 | 235 to 255 |
| O=C(/C=C/C=C(c1ccc(C(F)(F)F)cc1)c1ccc(C(F)(F)F)cc1)Nc1cccc2cnccc12 | 164 to 166 |
| O=C1NC(=O)C(c2ccc(Oc3ccccc3)cc2)C(=O)N1 | > 240 |
| COc1ccc(C(=O)N(c2ccccc2)c2ccc(OCCCN(C)C)cc2)cc1 | 111 to 115 |
| Cc1cc(C#N)cc(C(=O)Nc2ccnc(F)c2)n1 | 246 |
| C=CCCCCCCCCC(=O)N[C@H]1CCCNC(=O)C1 | 83 to 84 |
| O=c1c2ncn3c2n(c(=O)n1Cc1ccc([N+](=O)[O-])cc1)CC=C3c1cccc(C(F)(F)F)c1 | 230 to 232 |
| CC(O)c1c(Cl)nc2n(c1=O)CCS2 (stereo not drawn) | 171 to 172 |
| N=C(Nc1ccc2c(C3CN4CCC3CC4)c[nH]c2c1)c1cccs1 (stereo not drawn) | 144 to 146 |
| Cc1nc(-c2ccncn2)cc(=O)[nH]1 | 320 to 322 |
| N#Cc1ccc(N(Cc2ccc(Br)cc2)n2cnnc2)cc1-c1ccc(O)cc1 | 222 to 224 |
| CCC(=O)OC1(C(=O)CCl)CCC2C3CCC4CC(=O)CCC4(C)C3(F)C(=O)CC21C (stereo not drawn) | 168 |
| COC(=O)C1=C(C(=O)OC)C2(c3ccc(Cl)cc3)C=CC1O2 (stereo not drawn) | 84 |
| CC(C(=O)c1ccccc1)N1CCN(c2nc3nccc(-c4ccncc4)n3n2)CC1 (stereo not drawn) | 142 to 144 |
| COc1cnc(CSc2nc3cc(OC(F)(F)C(F)F)ccc3[nH]2)c(C)c1OC | 127 to 128 |
| Cn1cnc2cc(NC(=O)c3cc4cc(F)ncc4n3Cc3cccc(F)c3)ccc21 | 279 to 281 |
| CCCC(=NOCC)C1=C(O)CC2(CSCCSC2)OC1=O | 108 to 110 |
| Cc1c(OC(C)(C)C(=O)O)ccc(OCCCC#Cc2ccc(OC(F)(F)F)cc2)c1F | 116 to 118 |

| Compound | melting point [°C] |
| --- | --- |
| Cc1ccc(-c2nc(-c3nn(Cc4ccccc4F)c4ncccc34)ncc2C#N)cc1 | 229 |
| O=C1Nc2ccccc2SC1CCCCBr (stereo not drawn) | 100 |
| O=c1cnc2cc(C(c3cccc(Cl)c3)n3ccnc3)ccc2[nH]1 (stereo not drawn) | 253 |
| c1ccc2c(NCCc3c[nH]cn3)nsc2c1 | 222 to 224 |
| O=C1C2=C(CCCC2)C(=S)N1c1ccc(Cl)cc1F | 101 to 102 |
| O=C(NCc1cccnc1)c1ccc2n1Cc1ccccc1N(C(=O)CSc1ccc(Br)cc1)C2 | 136 to 137 |
| Cc1ccc(C=CCC(CCC(=O)O)(C(=O)C=Cc2ccc(Cl)cc2)c2ccccc2)cc1 (stereo not drawn) | 170 to 180 |
| CCn1c(=N)c(-c2ccc(-c3ccccc3)cc2)cc2cnc(Nc3ccccc3)nc21 | 245 to 249 |
| O=C(c1ccc(-c2ccc(-c3ccc(-c4ccc(C(=O)c5c(F)c(F)c(F)c(F)c5F)s4)s3)s2)s1)c1c(F)c(F)c(F)c(F)c1F | 291 to 294 |
| O=C(O)Cn1cc(Cc2nc3cc(C(F)(F)F)ccc3s2)c2ccccc21 | 233 to 234 |
| COCCN1CCN(CCc2ccc(Nc3ncc4c(n3)-c3ccccc3C(c3ccccc3)C4)cc2)CC1 (stereo not drawn) | 52 to 54 |
| Cn1c(=O)n(O)c(=O)c2cc(F)c(N3CCCC3)cc21 | > 250 |
| CNC(=O)c1cc2ccccc2c(-c2cccc(I)c2)n1 | 172 to 174 |
| CCCCNc1ccn2nccc2n1 | 75 to 76 |
| FC(F)(F)c1cc2ccccc2[nH]1 | 102 |
| N#CCNC(=O)c1ccnc(F)c1 | 124 to 125 |
| CC1(C)NC(=O)N(c2cc(Cl)c(F)c(Cl)c2)C1=O | 175 to 176 |
| CC1(C)C(C)(C)C1(Cl)c1ccc2c(c1)OCO2 | 110 to 112 |

Next, values leading:

| melting point [°C] | Compound |
| --- | --- |
| 166 to 168 | CC(=O)OCC(=O)c1cc(O)c(O)c([N+](=O)[O-])c1 |
| 265 to 268 | CC1CN(C(=O)COc2nc(-c3ccc(Cl)cc3)nc3c2CCCC3)CC(C)O1 (stereo not drawn) |
| 116 to 118 | O=C(CNC(=O)c1cc([N+](=O)[O-])ccc1Cl)OCc1ccccc1 |
| 104 to 106 | COc1ccc(C(=O)NCC(O)CCl)cc1OC (stereo not drawn) |
| 67 to 68 | CCOC(=O)CCc1oc(-n2ccnc2)nc1-c1ccc(Cl)cc1 |
| 118 | CC1(C)C(=O)C(c2ccc(F)c(F)c2)=C1c1ccc(S(C)(=O)=O)cc1 |
| 78 to 80 | CCCCNC(=O)CCC(=O)c1ccccc1 |
| 225 to 230 | CCOC(=O)c1sc(NC(=O)NN)nc1C |
| 119 to 120 | CCCCCCc1cc2c(cc1C(=O)Oc1ccc(C(=O)O)cn1)CCCCC2(C)C |
| 202 to 204 | CNC(=O)c1sc(C(C)(C)C)cc1NC(=O)Nc1ccc(C)cc1 |
| 80 to 84 | CC(=O)NNc1ccc(N2C(=S)SCC2(O)c2ccccc2)cc1 (stereo not drawn) |
| 157 to 158 | O=C1CN(c2ccccc2)C(=O)N1S(=O)(=O)c1ccc(Oc2ccccc2)cc1 |
| 107 to 108 | COc1cccc(NN=C(Sc2ccc(Cl)cc2)C(C)=O)c1 |
| 72.6 to 72.7 | CCCCOc1ccc(CCCO)c(Oc2ncc(C(F)(F)F)cc2Cl)c1 |
| 160 to 162 | CCOC(=O)On1nnc2ccc(Cl)cc21 |
| 165 to 167 | COc1cc2nc(N3CCN(C(=O)C4CCc5ccccc5O4)CC3)nc(N)c2cc1OC (stereo not drawn) |
| 140 to 142 | CC1(C)CC(CNS(=O)(=O)c2ccc(Cl)cc2)(Cc2ccc(CC(=O)O)cc2)C1 |
| 156 to 161 | C[C@@H]1Cc2ccsc2[C@H](c2cccs2)N1CCNS(=O)(=O)c1ccc(N)cc1 (relative stereo) |

| melting point [°C] | Compound |
| --- | --- |
| 65.5 to 66.5 | COC(=O)CC(=O)c1cc(OC)c2c(c1)OCO2 |
| 155 to 157 | O=C1CCC(N2Cc3c(OCc4cn5cc(CN6CCOCC6)ccc5n4)cccc3C2=O)C(=O)N1 (stereo not drawn) |
| 162 | C=C(c1cc(OC)c(O)c2c(Cc3ccccc3)cccc12)C(C)(C)C(=O)O |
| 133 to 135 | CC(=O)Nc1ccc(OCC2CCCC(OC(CCn3ccnc3)c3ccc(F)cc3)O2)cc1 (stereo not drawn) |
| 94 | O=C1CC(CO)N1Cc1ccccc1 (stereo not drawn) |
| 172 | CC1=CCCN(C)C1COC(=O)c1c[nH]c2ccccc12 (stereo not drawn) |
| 158 to 159 | CC1=C(C(=O)OC(C)C)C(c2cccc([N+](=O)[O-])c2)N(C(=O)OCc2ccccc2)C(=O)N1 (stereo not drawn) |
| 182 to 185 | Cc1nnnn1-c1ccc(/C(=C\C2CCCC2)C(=O)O)cc1F |
| 102 to 105 | CCOCCc1ccc(OCC=NO)c(C)c1C |
| 132 to 133 | CC(C)CCSc1cc(C(=O)O)cc(N)c1Oc1ccccc1 |
| 110 to 111 | O=C(Cc1ccccc1F)N1C(=O)OC[C@H]1c1ccccc1 |
| 213 to 214 | CC(C)(C)c1cc(C=O)c2c(c1O)CCC2 |
| 70.5 to 72 | CC1=NN(C)C(=O)C1(Cl)C(=O)c1ccccc1 (stereo not drawn) |
| 122 to 123 | CN1CCN(c2cncc(Cl)n2)CC1=O |
| 197 | CCCC1=NN(c2ccc(C#N)cc2)C(=O)C1=CNc1ccccc1CC |
| 179 to 180 | C#CCc1c(C)nc2c(OCc3ccccc3S(C)(=O)=O)cccn12 |
| 96 to 97 | CCOC(=O)C1=CCCCC1S(=O)(=O)Nn1c(C)ccc1C (stereo not drawn) |
| 113 to 120 | CNC(=O)c1ccc(N2CCN(Cc3cc(C)c4c(c3)NC(=O)C(C)O4)CC2)c(C)c1 (stereo not drawn) |
